Test results from patent US8227510B2, “Combine use of pterostilbene and quercetin for the production of cancer treatment medicaments” (Universitat de Valencia, priority 2004, dated 2012).

Test system: B16M-F10 cells / HSE
Test: Adhesion in vitro of B16M-F10 cells to hepatic sinusoidal endothelium
Assay type: cell-based, mice
Conditions: for inhibition of adhesion of tumor cells to the endothelium: brief exposure (60 minutes), TNF and IFN present; for Tumor cells Adhesion (%): t-RESV 12 μM, t-PTER 40 μM, QUER 20 μM, 60 minutes exposure, cytokine-treated HSE, no polyphenol = 100%
Excerpt: C57BL/6J mice were used (male, 10 to 12 weeks old) from IFFA Credo (L'Arbreole, France). The hepatic sinusoidal endothelium (HSE) was separated and identified as described previously (20). The sinusoidal cells were separated in a gradient of 17.5% metrizamide (w/v). The HSE cultures were established and maintained in pyrogen-free DMEM supplemented as described previously for the B16M-F10 cells. Differential adhesion of the endothelial cells to the collagen matrix and washing permitted complete removal of other types of sinusoidal cells (Kupffer's cells, astrocytes, lymphocytes) from the culture flasks.
The B16M-F10 cells were labeled with 2′,7′-bis-(2-carboxyethyl)-5-(and -6)-carboxyfluorescein acetoxymethyl ester (BCECF-AM; Moleculer Probes, Eugene, Oreg., USA) (10^6 cells were incubated for 20 minutes at 37° C. in 1 ml of DMEM buffered with HEPES that contained 50 μg of BCECF-AM and 5 μl of DMSO). After washing, the cells that contained BCECF-AM were resuspended in DMEM buffered with HEPES without phenol red at a concentration of 2.5×10^6 cells/ml and were added (0.2 ml/well) to the endothelial cell culture (seeded 24 hours previously), as well as to wells of plastic and controls previously treated with collagen. The plates were then incubated at 37° C. and, 20 minutes later, the wells were washed three times with fresh medium, and then their fluorescence was read using a Fluoroskan Ascent FL (Labsystems, Manchester, UK). The number of adhering tumor cells was quantified with arbitrary fluorescence units based on the percentage relative to the initial number of B16M-F10 cells added to the HSE culture (20). The damage caused to the B16M-F10 cells during their adhesion in vitro to the HSE was evaluated as described previously (21) using tumor cells labeled with calcein-AM (Molecular Probes, Eugene, Oreg., USA). The integrity of the B16M-F10 cells cultivated on their own was evaluated by exclusion of trypan blue and measuring the lactate dehydrogenase released to the extracellular medium (22). The other reagents used in the tumoral cytotoxicity experiments were from Sigma.
Recombinant murine TNF- (2×10^7 U/mg of protein) and recombinant murine interferon-(IFN-; 10^5 U/mg of protein) were obtained from Sigma. The concentrated solutions (5×10^5 U TNF-/ml and 25×10^4 U IFN-/ml) were diluted in sterile saline (0.9% NaCl), adjusted to pH 7.0, and stored at 4° C.
In addition to the effect of PTER+QUER on tumor growth, we investigated the antimetastatic potential. The interaction of B16M-F10 and HSE cells was studied in vitro first. On the basis of the results obtained previously, we chose brief periods of exposure (60 minutes) of the metastatic cells to the polyphenols (at the concentrations measured in the plasma after their i.v. administration). Since the interaction of the metastatic cells with the endothelial cells and Kupffer's cells activates the local release of proinflammatory cytokines [promoters of adhesion of cancer cells to the endothelium and of invasion (14, 31)], we investigated the effect of the polyphenols on the adhesion of B16M-F10 cells to the HSE in the presence of TNF- and IFN-—this combination of cytokines induces maximum activation of the HSE (see ref. 20 and the references therein) (Table 3). […] A similar effect (˜60% inhibition of adhesion) was found in the presence of t-PTER (Table 3). […]

COc1cc(/C=C/c2ccc(O)cc2)cc(OC)c1 [PTER, pterostilbene]
inhibition of adhesion of tumor cells to the endothelium: ~60% | Tumor cells Adhesion (%): 40 ± 6 %

O=c1c(O)c(-c2ccc(O)c(O)c2)oc2cc(O)cc(O)c12 [QUER, quercetin]
inhibition of adhesion of tumor cells to the endothelium: without affecting the level of adhesion | Tumor cells Adhesion (%): 98 ± 11%

Oc1ccc(C=Cc2cc(O)cc(O)c2)cc1 [RESV, resveratrol, reference compound]
Tumor cells Adhesion (%): 53 ± 7 %
